Reference: ChEMBL document CHEMBL1201862, “PubChem BioAssay data set” (2004)
“And” between values parts separate entries of the source, which are not always exact repeats. Identical values can stand only once.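 Five compound concentrations were applied to cells in 96-well plates for 48 hours; endpoints were derived by simple linear interpolation of the resulting dose-response curve. GI50: concentration for 50% inhibition of growth.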 The source made the active and inactive calls. No stated cut-off is given here; in the data, active = GI50 up to about 1.1 µM and inactive = higher.

Assays:
Test in all cases: inhibition of tumour cell growth, NCI panel, 48 h
[1] = test system: SK-MEL-5
[2] = test system: SW-620
[3] = test system: M14
[4] = test system: HOP-62
[5] = test system: NCI-H23
[6] = test system: PC-3
[7] = test system: UACC-62
[8] = test system: TK-10
[9] = test system: 786-0
[10] = test system: SR
[11] = test system: CCRF-CEM
[12] = test system: CAKI-1
[13] = test system: MDA-MB-231
[14] = test system: EKVX
[15] = test system: SF-295
[16] = test system: RPMI-8226
[17] = test system: SF-268
[18] = test system: KM12
[19] = test system: HCT-15
[20] = test system: Malme-3M
[21] = test system: SK-MEL-28
[22] = test system: HCC 2998
[23] = test system: MDA-N
[24] = test system: SK-OV-3
[25] = test system: RXF 393
[26] = test system: OVCAR-8
[27] = test system: T47D
[28] = test system: A549
[29] = test system: IGROV-1
[30] = test system: MOLT-4
[31] = test system: SNB-75
[32] = test system: SN12C
[33] = test system: MCF7
[34] = test system: U-251
[35] = test system: SF-539
[36] = test system: Hs-578T
[37] = test system: UO-31
[38] = test system: DU-145
[39] = test system: A498
[40] = test system: OVCAR-3
[41] = test system: NCI-H460
[42] = test system: OVCAR-5
[43] = test system: UACC-257
[44] = test system: NCI/ADR-RES
[45] = test system: LOX IMVI
[46] = test system: HL-60
[47] = test system: COLO 205
[48] = test system: NCI-H226
[49] = test system: HOP-92
[50] = test system: NCI-H522
[51] = test system: ACHN
[52] = test system: HT-29
[53] = test system: MDA-MB-435
[54] = test system: HCT-116

CC1OC(c2ccccc2)=CC(OCc2ccccc2)[C@H]1OCc1ccccc1 (some centres undefined)
GI50 [1]: > 10 µM (inactive)
GI50 [2]: > 10 µM (inactive)
GI50 [3]: > 10 µM (inactive)
GI50 [4]: > 10 µM (inactive)
GI50 [5]: > 10 µM (inactive)
GI50 [6]: > 10 µM (inactive)
GI50 [7]: > 10 µM (inactive)
GI50 [8]: > 10 µM (inactive)
GI50 [9]: > 10 µM (inactive)
GI50 [10]: > 10 µM (inactive)
GI50 [11]: > 10 µM (inactive)
GI50 [12]: > 10 µM (inactive)
GI50 [13]: > 10 µM (inactive)
GI50 [14]: > 10 µM (inactive)
GI50 [15]: > 10 µM (inactive)
GI50 [16]: > 10 µM (inactive)
GI50 [17]: > 10 µM (inactive)
GI50 [18]: > 10 µM (inactive)
GI50 [19]: > 10 µM
GI50 [20]: > 10 µM (inactive)
GI50 [21]: > 10 µM (inactive)
GI50 [22]: > 10 µM (inactive)
GI50 [23]: > 10 µM (inactive)
GI50 [24]: > 10 µM (inactive)
GI50 [25]: > 10 µM (inactive)
GI50 [26]: > 10 µM (inactive)
GI50 [27]: > 10 µM (inactive)
GI50 [28]: > 10 µM (inactive)
GI50 [29]: > 10 µM (inactive)
GI50 [30]: > 10 µM (inactive)
GI50 [31]: > 10 µM (inactive)
GI50 [32]: > 10 µM (inactive)
GI50 [33]: > 10 µM (inactive)

COC(=O)/C=C/c1cc(OC)c2c(c1)C(C(=O)OC)C(c1ccc(O)c(OC)c1)O2 (centres undefined)
GI50 [1]: 2.27 µM (inactive) and 2.57 µM (inactive) and 1.4 µM (inactive)
GI50 [3]: 4.05 µM (inactive) and 5.74 µM (inactive) and 3.53 µM (inactive)
GI50 [5]: 5.08 µM (inactive) and 3.93 µM (inactive) and 5.18 µM (inactive)
GI50 [6]: 3.13 µM (inactive) and 2.84 µM (inactive) and 2.79 µM (inactive)
GI50 [9]: 3.44 µM (inactive) and 2.21 µM (inactive) and 4.33 µM (inactive)
GI50 [34]: 3.4 µM (inactive) and 3.29 µM (inactive) and 3.13 µM (inactive)
GI50 [35]: 2.69 µM (inactive) and 2.17 µM (inactive) and 1.82 µM (inactive)
GI50 [13]: 2.49 µM (inactive) and 4.51 µM (inactive) and 3.15 µM (inactive)
GI50 [36]: 2.69 µM (inactive) and 2.38 µM (inactive) and 1.67 µM (inactive)
GI50 [15]: 2.2 µM (inactive) and 2.36 µM (inactive) and 1.22 µM (inactive)
GI50 [17]: 7.87 µM (inactive) and 8.04 µM (inactive) and 5.83 µM (inactive)
GI50 [18]: 2.83 µM (inactive) and 3.34 µM (inactive) and 2.13 µM (inactive)
GI50 [37]: 4.98 µM (inactive) and 4.86 µM (inactive) and 9.53 µM (inactive)
GI50 [38]: 3.72 µM (inactive) and 3.18 µM (inactive) and 4.32 µM (inactive)
GI50 [20]: 4.58 µM (inactive) and 4.39 µM (inactive) and 2.74 µM (inactive)
GI50 [39]: 8.95 µM (inactive) and 15.2 µM (inactive) and 8.2 µM (inactive)
GI50 [24]: 5.71 µM (inactive) and 5.64 µM (inactive) and 3.26 µM (inactive)
GI50 [25]: 1.88 µM (inactive) and 2.98 µM (inactive) and 2.43 µM (inactive)
GI50 [27]: 3.87 µM (inactive) and 7.14 µM (inactive) and 3.73 µM (inactive)
GI50 [28]: 6.25 µM (inactive) and 5.69 µM (inactive) and 6 µM (inactive)
GI50 [31]: 1.95 µM (inactive) and 1.51 µM (inactive) and 1.94 µM (inactive)

CCOC(=O)/C=C/C(=O)O/C=C/[N+](=O)[O-]
GI50 [1]: > 100 µM (inactive)
GI50 [2]: > 100 µM (inactive)
GI50 [40]: > 100 µM (inactive)
GI50 [41]: > 100 µM (inactive)
GI50 [42]: > 100 µM (inactive)
GI50 [3]: > 100 µM (inactive)
GI50 [4]: > 100 µM (inactive)
GI50 [5]: > 100 µM (inactive)
GI50 [43]: > 100 µM (inactive)
GI50 [44]: > 100 µM (inactive)
GI50 [7]: > 100 µM (inactive)
GI50 [8]: > 100 µM (inactive)
GI50 [45]: > 100 µM (inactive)
GI50 [9]: > 100 µM (inactive)
GI50 [46]: > 100 µM (inactive)
GI50 [10]: > 100 µM (inactive)
GI50 [11]: 4.54 µM (inactive)
GI50 [34]: > 100 µM (inactive)
GI50 [47]: > 100 µM (inactive)
GI50 [12]: 33.3 µM (inactive)
GI50 [48]: > 100 µM (inactive)
GI50 [35]: > 100 µM (inactive)
GI50 [49]: > 100 µM (inactive)
GI50 [13]: > 100 µM (inactive)
GI50 [14]: > 100 µM (inactive)
GI50 [36]: > 100 µM (inactive)
GI50 [15]: > 100 µM (inactive)
GI50 [16]: > 100 µM (inactive)
GI50 [50]: > 100 µM (inactive)
GI50 [51]: > 100 µM (inactive)
GI50 [17]: > 100 µM (inactive)
GI50 [52]: > 100 µM (inactive)
GI50 [18]: > 100 µM (inactive)
GI50 [19]: > 100 µM
GI50 [37]: > 100 µM (inactive)
GI50 [38]: > 100 µM (inactive)
GI50 [39]: > 100 µM (inactive)
GI50 [22]: > 100 µM (inactive)
GI50 [23]: > 100 µM (inactive)
GI50 [24]: > 100 µM (inactive)
GI50 [53]: > 100 µM (inactive)
GI50 [25]: > 100 µM (inactive)
GI50 [26]: > 100 µM (inactive)
GI50 [54]: > 100 µM (inactive)
GI50 [27]: > 100 µM (inactive)
GI50 [29]: > 100 µM (inactive)
GI50 [30]: > 100 µM (inactive)
GI50 [31]: > 100 µM (inactive)
GI50 [32]: > 100 µM (inactive)
GI50 [33]: > 100 µM (inactive)
